Values belong to the compound of their own block, whether it stands above or below them.
Tests used:
SGLTs = conditions: cited from earlier work
SGLT2 over SGLT1 = conditions: cited from earlier work
SGLT2 [1] = molecular target: T1, SGLT2 (Rattus norvegicus, UniProt P53792)
T1 sequence (P53792 1-670): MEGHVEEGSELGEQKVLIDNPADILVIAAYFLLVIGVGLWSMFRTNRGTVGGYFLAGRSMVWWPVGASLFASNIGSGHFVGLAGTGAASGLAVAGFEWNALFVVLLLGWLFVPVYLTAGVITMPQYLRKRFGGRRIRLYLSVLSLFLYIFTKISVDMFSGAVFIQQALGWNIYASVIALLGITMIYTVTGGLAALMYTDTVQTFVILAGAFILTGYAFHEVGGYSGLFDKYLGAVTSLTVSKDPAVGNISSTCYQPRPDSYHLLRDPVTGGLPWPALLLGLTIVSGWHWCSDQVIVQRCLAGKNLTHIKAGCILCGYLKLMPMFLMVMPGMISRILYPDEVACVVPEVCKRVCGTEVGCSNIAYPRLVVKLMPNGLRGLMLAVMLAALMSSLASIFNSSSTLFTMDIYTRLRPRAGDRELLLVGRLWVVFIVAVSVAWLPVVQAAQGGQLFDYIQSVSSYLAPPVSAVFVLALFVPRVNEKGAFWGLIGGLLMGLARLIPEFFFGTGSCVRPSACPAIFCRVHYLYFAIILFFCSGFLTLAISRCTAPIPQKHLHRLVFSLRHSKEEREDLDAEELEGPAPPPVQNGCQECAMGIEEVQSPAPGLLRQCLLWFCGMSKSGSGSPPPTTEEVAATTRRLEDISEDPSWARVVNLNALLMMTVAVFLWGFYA

[2] = cited from earlier work
SGLT2 [3] = molecular target: SGLT2 (Homo sapiens, UniProt P31639); conditions: read-out: Ki for SGLT2
Source text: A method of making radiolabeled inhibitors pyranosides is also provided.

GLUTs = conditions: cited from earlier work
SGLT1 = molecular target: T2, SGLT1 (Homo sapiens, UniProt P13866); conditions: specific, non-metabolized substrate; cited from earlier work
T2 sequence (P13866 1-664): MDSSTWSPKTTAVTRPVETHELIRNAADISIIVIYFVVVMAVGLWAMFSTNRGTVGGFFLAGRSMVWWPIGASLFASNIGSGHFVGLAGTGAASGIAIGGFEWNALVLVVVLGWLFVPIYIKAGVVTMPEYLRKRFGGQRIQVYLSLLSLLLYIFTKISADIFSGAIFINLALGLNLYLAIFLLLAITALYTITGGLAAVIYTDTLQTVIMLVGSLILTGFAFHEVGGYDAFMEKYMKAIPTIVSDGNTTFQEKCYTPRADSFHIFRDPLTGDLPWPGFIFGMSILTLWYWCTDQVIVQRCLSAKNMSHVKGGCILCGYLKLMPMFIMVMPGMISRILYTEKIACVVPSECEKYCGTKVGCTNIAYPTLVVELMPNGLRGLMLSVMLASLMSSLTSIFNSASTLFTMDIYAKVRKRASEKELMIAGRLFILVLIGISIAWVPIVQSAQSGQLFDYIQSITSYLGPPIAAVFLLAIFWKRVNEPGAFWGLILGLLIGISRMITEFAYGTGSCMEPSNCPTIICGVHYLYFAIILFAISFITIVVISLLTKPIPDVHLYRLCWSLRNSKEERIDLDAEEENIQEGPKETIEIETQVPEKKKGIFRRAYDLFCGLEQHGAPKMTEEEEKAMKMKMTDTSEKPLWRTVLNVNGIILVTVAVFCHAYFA

[4] = for 1-25 hours after oral administration of dapagliflozin; cited from earlier work
[5] = major metabolite of dapagliflozin; cited from earlier work
[6] = cited from earlier work; remark: listed apart in the source
[7] = images summed 50-60 minutes post injection
[8] = type 2 diabetic patients, tested doses

SGLT2 (Homo sapiens, UniProt P31639), sequence (P31639 whole entry): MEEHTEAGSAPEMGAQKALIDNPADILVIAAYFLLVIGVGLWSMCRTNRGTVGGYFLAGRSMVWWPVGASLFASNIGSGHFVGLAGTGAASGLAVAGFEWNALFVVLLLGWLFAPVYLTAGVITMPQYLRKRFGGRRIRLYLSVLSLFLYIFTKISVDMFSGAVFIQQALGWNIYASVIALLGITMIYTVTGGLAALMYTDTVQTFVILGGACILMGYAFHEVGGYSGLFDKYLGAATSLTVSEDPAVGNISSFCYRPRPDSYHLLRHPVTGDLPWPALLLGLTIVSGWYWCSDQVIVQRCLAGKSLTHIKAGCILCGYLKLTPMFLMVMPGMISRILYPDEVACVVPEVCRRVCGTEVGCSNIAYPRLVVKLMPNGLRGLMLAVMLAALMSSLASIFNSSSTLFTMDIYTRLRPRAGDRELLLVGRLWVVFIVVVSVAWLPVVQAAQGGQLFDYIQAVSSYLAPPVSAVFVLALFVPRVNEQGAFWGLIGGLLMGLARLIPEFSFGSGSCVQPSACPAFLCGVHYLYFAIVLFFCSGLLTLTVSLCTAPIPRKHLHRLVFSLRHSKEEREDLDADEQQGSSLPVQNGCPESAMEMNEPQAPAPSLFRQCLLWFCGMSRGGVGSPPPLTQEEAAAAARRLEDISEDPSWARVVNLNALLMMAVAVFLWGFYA

Structure (SMILES): O=C[C@H]([18F])[C@@H](O)[C@H](O)[C@H](O)CO [2-FDG, 2-deoxy-2-[18F]fluoro-D-glucose]
substrate for SGLTs (SGLTs): not a substrate

Structure (SMILES): O=CC[C@@H](O)[C@H](O)[C@H](O)CO [2-deoxy-D-glucose]
substrate for SGLTs (SGLTs): poor substrates

Structure (SMILES): Cc1cc(OCCCNCC(C)(C)C(N)=O)ccc1Cc1c(O[C@@H]2O[C@H](CO)[C@@H](O)[C@H](O)[C@H]2O)n[nH]c1C(C)C [DSP-3235]
selectivity among SGLTs (in words) (SGLT2 over SGLT1): targets SGLT1

[18F]-dapagliflozin binding to the kidney cortex after pre-injection of the substance (SGLT2 [1]; [7]): completely blocked
Structure (SMILES): O=C(CCc1ccc(O)cc1)c1c(O)cc(O)cc1O[C@@H]1O[C@H](CO)[C@@H](O)[C@H](O)[C@H]1O [Phlorizin]

Structure (SMILES): COC(=O)OC[C@H]1O[C@@H](Oc2cc(C)cc(O)c2C(=O)CCc2ccc3occc3c2)[C@H](O)[C@@H](O)[C@@H]1O [T-1095]
selectivity among SGLTs (in words) (SGLT2 over SGLT1): nonselective
blood glucose levels ([2]; diabetic animals): lowered blood glucose levels
renal glucose excretion ([2]; diabetic animals): resulted in renal glucose excretion
hyperinsulinemia and hypertriglyceridemia ([2]; diabetic rodents): reduced hyperinsulinemia and hypertriglyceridemia
post-prandial hyperglycemia ([2]; diabetic rodents): suppressed post-prandial hyperglycemia
absorption of the pro-drug ([2]; oral): absorbed from the gut into the circulation

Ki (SGLT2 [3]): 1 to 5 nM
Structure (SMILES): CCOc1ccc(Cc2cc([C@@H]3O[C@H](CO)[C@@H](F)[C@H](O)[C@H]3O)ccc2Cl)cc1 [[18F]-dapagliflozin, (1S)-1,5-anhydro-1-C-{4-chloro-3-[(4-ethoxyphenyl)methyl]phenyl}-4-[18F]-4-deoxy-D-glucitol]

Structure (SMILES): CCOc1ccc(Cc2cc([C@@H]3O[C@H](CO)[C@@H]([18F])[C@H](O)[C@H]3O)ccc2Cl)cc1 [[18F]-dapagliflozin, (1S)-1,5-anhydro-1-C-{4-chloro-3-[(4-ethoxyphenyl)methyl]phenyl}-4-[18F]-4-deoxy-D-glucitol]
tracer binding site in microPET image (SGLT2 [1]; [7]): binding to the outer cortex of the kidney
18F-activity in the intestine (SGLT2 [1]; with pre-injection of dapagliflozin or phlorizin): excretion by the liver into bile

Structure (SMILES): CO[C@H]1O[C@H](CO)[C@@H](O)[C@H](O)[C@H]1O [alpha-methyl-D-glucopyranoside]
substrate for GLUTs (GLUTs): not a substrate
concentration reached in cells above plasma concentrations (SGLT1): ≤ 800 fold

Structure (SMILES): CCOc1ccc(Cc2cc([C@@H]3O[C@H](CO)[C@@H](O)[C@H](O[C@@H]4O[C@H](C(=O)O)[C@@H](O)[C@H](O)[C@H]4O)[C@H]3O)ccc2Cl)cc1 [dapagliflozin 3-O-glucuronide]
plasma level of the metabolite versus native drug [4]: higher than the native drug
activity of the metabolite [5]: inactive

[18F]-dapagliflozin binding to the kidney cortex after pre-injection of the substance (SGLT2 [1]; [7]): completely blocked
Structure (SMILES): CCOc1ccc(Cc2cc([C@@H]3O[C@H](CO)[C@@H](O)[C@H](O)[C@H]3O)ccc2Cl)cc1 [dapagliflozin]
weight loss ([6]; over 28-58 weeks): up to 3.5 Kg
reduction in fasting serum glucose [6, 8]: 22±10%
reduction in post-prandial glucose absorption (area under the plasma glucose concentration curve) [6, 8]: 20±10%
sustained urinary glucose excretion [6, 8]: 30-65 gram/day
increase in hematocrit ([6]; type 2 diabetic patients): up to 3%
increase in urine volume ([6]; type 2 diabetic patients): up to 470 ml/day
loss of urinary glucose ([6]; type 2 diabetic patients): 200 to 300 kcal/day
reduction in diastolic blood pressure ([6]; type 2 diabetic patients): 2-5 mm Hg

Structure (SMILES): O=C[C@@H](O)[C@@H](O)[C@H](O)[C@H](O)CO [mannose]
substrate for SGLTs (SGLTs): poor substrates

Structure (SMILES): Cc1c(Cc2ccc(OC(C)C)cc2)c(O[C@@H]2O[C@H](CO)[C@@H](O)[C@H](O)[C@H]2O)nn1C(C)C [remogliflozin]
selectivity among SGLTs (in words) (SGLT2 over SGLT1): markedly increased selectivity for SGLT2

Reference: patent publication US20140271474A1, “INHIBITOR PROBES FOR IMAGING SODIUM-GLUCOSE COTRANSPORTERS IN HEALTH AND DISEASE” (THE REGENTS OF THE UNIVERSITY OF CALIFORNIA, priority 2011, published 2014)
